Converted amounts (≈) assume the structure as drawn.
Key:
[1] = biological target: T1, Poly [ADP-ribose] polymerase tankyrase-2 (Homo sapiens, UniProt Q9H2K2); assay: Inhibition of recombinant human N-terminal TEV cleavage site-fused/FLAG-poly his-tagged TNKS2 ARC5-SAM-PARP domain (613 to 1166 residues) expressed in Escherichia coli assessed as reduction in auto-PARylation preincubated for 10 mins followed by biotinylated-NAD+ addition and measured after 45 mins by ELISA
T1 sequence (Q9H2K2 whole entry): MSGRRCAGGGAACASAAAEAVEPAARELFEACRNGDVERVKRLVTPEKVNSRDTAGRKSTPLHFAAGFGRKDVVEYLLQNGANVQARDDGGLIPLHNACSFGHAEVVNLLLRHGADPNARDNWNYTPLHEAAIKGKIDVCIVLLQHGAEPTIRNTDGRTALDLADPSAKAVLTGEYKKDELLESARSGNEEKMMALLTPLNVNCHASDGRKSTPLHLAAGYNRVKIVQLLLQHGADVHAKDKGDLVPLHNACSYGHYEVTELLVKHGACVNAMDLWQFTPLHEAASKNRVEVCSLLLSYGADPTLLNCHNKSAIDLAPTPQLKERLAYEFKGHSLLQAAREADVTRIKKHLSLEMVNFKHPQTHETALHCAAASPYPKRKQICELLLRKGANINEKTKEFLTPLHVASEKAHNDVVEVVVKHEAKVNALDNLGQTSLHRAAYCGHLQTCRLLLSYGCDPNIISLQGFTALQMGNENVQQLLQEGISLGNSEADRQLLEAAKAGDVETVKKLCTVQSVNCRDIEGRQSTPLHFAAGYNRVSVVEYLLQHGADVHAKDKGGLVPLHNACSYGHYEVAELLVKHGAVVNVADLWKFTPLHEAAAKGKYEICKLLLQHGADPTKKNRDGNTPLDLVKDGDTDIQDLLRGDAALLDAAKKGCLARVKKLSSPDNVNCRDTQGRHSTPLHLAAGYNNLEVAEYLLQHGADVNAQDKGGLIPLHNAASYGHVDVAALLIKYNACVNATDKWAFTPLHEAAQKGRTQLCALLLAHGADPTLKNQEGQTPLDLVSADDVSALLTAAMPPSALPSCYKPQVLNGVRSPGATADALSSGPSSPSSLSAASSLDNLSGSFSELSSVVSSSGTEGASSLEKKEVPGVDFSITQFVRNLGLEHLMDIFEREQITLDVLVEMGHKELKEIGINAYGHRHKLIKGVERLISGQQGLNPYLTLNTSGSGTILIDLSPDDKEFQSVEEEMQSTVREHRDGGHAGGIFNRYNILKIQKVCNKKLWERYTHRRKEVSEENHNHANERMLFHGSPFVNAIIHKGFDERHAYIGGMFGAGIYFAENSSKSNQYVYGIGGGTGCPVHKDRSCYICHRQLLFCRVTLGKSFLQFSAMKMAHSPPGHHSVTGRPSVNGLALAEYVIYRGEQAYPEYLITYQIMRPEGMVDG

[2] = tested on: COLO 320DM; assay: Antiproliferative activity against human COLO320DM cells assessed as inhibition of cell growth measured after 4 days by CellTiter-Glo assay; assay type: functional; conditions: 96 h
[3] = Stability in mouse liver microsomes assessed as parent compound remaining at 1 uM measured after 60 mins in presence of NADPH by LC-MS/MS analysis; assay type: ADME, Microsome; conditions: read-out: Stability
[4] = Stability in human liver microsomes assessed as parent compound remaining at 1 uM measured after 60 mins in presence of NADPH by LC-MS/MS analysis; assay type: ADME, Microsome; conditions: read-out: Stability
[5] = tested on: MDR1; assay: Efflux ratio of permeability across basolateral to apical side over apical to basolateral side in MDCK2-MDR1 cells; assay type: ADME, cell-based, Canis lupus familiaris; conditions: dog, MDCK-MDR1
[6] = Efflux ratio of permeability across basolateral to apical side over apical to basolateral side in MDCK2 cells; assay type: ADME, cell-based, Canis lupus familiaris, MDCK-II; conditions: dog, mdck
[7] = Net efflux ratio of permeability across basolateral to apical side over apical to basolateral side in MDCK2-MDR1 cells to MDCK2 cells; assay type: ADME, cell-based, Canis lupus familiaris; conditions: dog, mdck
[8] = biological target: T2, Poly [ADP-ribose] polymerase tankyrase-1 (Homo sapiens, UniProt O95271)
T2 sequence (O95271 whole entry): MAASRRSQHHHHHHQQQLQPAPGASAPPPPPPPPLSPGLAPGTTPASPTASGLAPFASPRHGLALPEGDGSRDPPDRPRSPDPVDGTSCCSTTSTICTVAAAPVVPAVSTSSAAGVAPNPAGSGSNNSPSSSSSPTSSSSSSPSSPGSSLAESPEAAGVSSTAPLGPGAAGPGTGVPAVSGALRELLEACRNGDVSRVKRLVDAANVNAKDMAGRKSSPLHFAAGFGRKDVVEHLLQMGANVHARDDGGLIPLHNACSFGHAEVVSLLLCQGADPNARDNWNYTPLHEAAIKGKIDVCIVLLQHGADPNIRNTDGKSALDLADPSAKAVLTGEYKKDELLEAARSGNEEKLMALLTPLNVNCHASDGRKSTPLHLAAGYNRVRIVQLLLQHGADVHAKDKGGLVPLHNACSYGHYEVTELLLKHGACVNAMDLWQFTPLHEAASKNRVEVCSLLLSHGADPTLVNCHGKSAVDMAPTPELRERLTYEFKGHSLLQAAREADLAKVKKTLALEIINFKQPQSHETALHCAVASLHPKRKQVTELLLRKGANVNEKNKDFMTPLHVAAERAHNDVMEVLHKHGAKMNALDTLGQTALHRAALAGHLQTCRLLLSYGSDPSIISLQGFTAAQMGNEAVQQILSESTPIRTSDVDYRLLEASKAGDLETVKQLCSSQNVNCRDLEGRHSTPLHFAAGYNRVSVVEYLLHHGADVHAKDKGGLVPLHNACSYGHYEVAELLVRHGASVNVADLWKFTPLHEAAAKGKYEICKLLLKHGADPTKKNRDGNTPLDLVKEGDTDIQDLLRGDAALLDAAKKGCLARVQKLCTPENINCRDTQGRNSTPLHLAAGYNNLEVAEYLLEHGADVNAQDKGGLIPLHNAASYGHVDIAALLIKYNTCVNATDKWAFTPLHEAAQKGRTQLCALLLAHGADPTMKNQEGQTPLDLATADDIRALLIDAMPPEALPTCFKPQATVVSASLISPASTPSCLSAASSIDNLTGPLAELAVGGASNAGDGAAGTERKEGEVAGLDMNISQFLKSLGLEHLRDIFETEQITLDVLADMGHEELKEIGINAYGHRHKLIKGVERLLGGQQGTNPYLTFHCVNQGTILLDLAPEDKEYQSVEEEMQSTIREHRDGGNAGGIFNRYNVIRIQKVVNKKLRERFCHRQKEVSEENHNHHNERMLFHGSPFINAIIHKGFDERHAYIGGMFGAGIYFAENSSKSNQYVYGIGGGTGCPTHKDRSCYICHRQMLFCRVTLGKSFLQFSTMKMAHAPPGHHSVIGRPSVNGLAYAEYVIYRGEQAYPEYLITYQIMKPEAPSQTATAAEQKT
Description: Inhibition of recombinant human N-terminal TEV cleavage site-fused/FLAG-poly his-tagged TNKS SAM-PARP domain (1024 to 1327 residues) expressed in Escherichia coli assessed as reduction in auto-PARylation preincubated for 10 mins followed by biotinylated-NAD+ addition and measured after 45 mins by ELISA

[9] = biological target: T3, Tankyrase 1/2 (Homo sapiens, UniProt Q9H2K2+O95271); conditions: hek293
T3 sequence (Q9H2K2 whole entry): T1 sequence (Q9H2K2 whole entry)
T3 sequence (O95271 whole entry): T2 sequence (O95271 whole entry)
Description: Inhibition of TNKS/TNKS2 (unknown origin) expressed in HEK293 cells assessed as reduction in Wnt-signaling measured after 24 hrs by TCF-luciferase reporter gene assay

[10] = biological target: T3, Tankyrase 1/2
Description: Inhibition of TNKS/TNKS2 (unknown origin) expressed in human DLD1 cells assessed as reduction in Wnt-signaling measured after 24 hrs by TCF-luciferase reporter gene assay

[11] = physchem; conditions: phosphate buffered saline, pH 7.4

SMILES	IC50 [1] [nM]	GI50 [2] [nM]	remaining at 1 h, 1 µM [3] [%]	remaining at 1 h, 1 µM [4] [%]	efflux ratio [5]	efflux ratio [6]	Ratio [7]	IC50 [8] [nM]	IC50 [9] [nM]	IC50 [10] [nM]	solubility at 1 h, 200 µM [11] [µg/mL]
CN1CCCc2c1nc(N1CCC3(CC1)C(=O)N(C)c1cc(N4CCOCC4)cc(F)c13)[nH]c2=O	10.5	100	46.5	6.3	7.8	1.9	4.1	14.9	0.1	2	72.2 (≈ 150 µM)
COCCN1C(=O)C2(CCN(c3nc4c(c(=O)[nH]3)CCCN4C)CC2)c2c(F)cc(F)cc21	11.7	50	0.1	1.8	4.8	1.3	3.7	10.3	0.3	3	6.3 (≈ 13.7 µM)
C[C@@H]1CN(c2cc(F)c3c(c2)N(C)C(=O)C32CCN(c3nc4c(c(=O)[nH]3)CCCN4C)CC2)C[C@H](C)N1	20.2	850	82.7	33	23.1	6.2	3.7	11.1	0.1	4.3	102 (≈ 200 µM)
CN1CCCc2c1nc(N1CCC3(CC1)C(=O)N(CS(C)(=O)=O)c1cc(F)cc(F)c13)[nH]c2=O	5.5	530	0.1	4.1	12	3.3	3.6	4.3	0.1	5.7	3 (≈ 6.08 µM)
CN(C)CCOc1cc(F)c2c(c1)N(C)C(=O)C21CCN(c2nc3c(c(=O)[nH]2)CCCN3C)CC1	11.1	810	83.7	54.4	22.7	9.2	2.5	4.9	0.3	6.1	95 (≈ 196 µM)
CN1CCCc2c1nc(N1CCC3(CC1)C(=O)N(C)c1cc(N4CCCCC4)cc(F)c13)[nH]c2=O	49.1	300	10.5	1.5	2.3	1	2.3	21.3	0.7	6.4	5 (≈ 10.4 µM)
CN1CCN(CCOc2cc(F)c3c(c2)N(C)C(=O)C32CCN(c3nc4c(c(=O)[nH]3)CCCN4C)CC2)CC1	18.7	740	83.5	56.5	86.4	13.1	6.6	7.9	1.2	6.3	188 (≈ 348 µM)
CN1CCCc2c1nc(N1CCC3(CC1)C(=O)N(C)c1cc(OCCN4CCOCC4)cc(F)c13)[nH]c2=O	17.1	330	41.4	1.5	29.1	5.1	5.7	9.2	0.3	2.8	101 (≈ 192 µM)
COc1cc(F)c2c(c1)N(C)C(=O)C21CCN(c2nc3c(c(=O)[nH]2)CCCN3C)CC1	6.2	130	0	1.9	2.7	1.1	2.5	4.4	0.2	4.5	4.8 (≈ 11.2 µM)

Source: ChEMBL document CHEMBL4342498, “Design and Discovery of an Orally Efficacious Spiroindolinone-Based Tankyrase Inhibitor for the Treatment of Colon Cancer” (J Med Chem, 2020)
